{"source": "paper PMC8364686", "about": "“Safety, tolerability, pharmacokinetics and pharmacodynamics of single oral doses of BI 187004, an inhibitor of 11beta-hydroxysteroid dehydrogenase-1, in healthy male volunteers with overweight or obesity” (Clinical Diabetes and Endocrinology, 2021)", "origin": "cited, not measured here", "key": {"[1]": {"system": "11beta-HSD1 in AT", "details": "single dose, cited from earlier work"}, "[2]": {"system": "11beta-HSD1", "details": "cited from earlier work"}}, "note": "Where two headings read alike, the source gives them in different places.", "data": [{"smiles": "CC(C)[C@]1(C)SC(=N[C@H]2C[C@@H]3CC[C@H]2C3)NC1=O", "note": "[AMG 221]", "values": [{"measurement": "11beta-HSD1 inhibition in AT", "setting": "[1]; 24-h study duration", "value": "> 90", "unit": "%"}]}, {"smiles": "CCCSc1nc(N2CCC[C@@H](CC(=O)O)C2)ccc1C(=O)NC1CCCCC1", "note": "[AZD4017]", "values": [{"measurement": "Maximum decrease in urinary (aTHF + THF)/THE ratio", "setting": "[2]; highest dose of 900 mg, after 9 days", "value": 92, "unit": "%"}]}, {"smiles": "C[C@@H](c1ccc(-c2ccn(C)c(=O)c2)cc1)N1CC[C@](CC(C)(C)O)(c2ccccc2)OC1=O", "note": "[BI 135585]", "values": [{"measurement": "11beta-HSD1 inhibition in AT", "setting": "[1]; 24 h after dosing", "value": 90, "unit": "%"}]}, {"smiles": "N#Cc1ccc(-c2ccc(S(=O)(=O)Nc3cccc(N)n3)cc2)cc1", "note": "[PF-915275]", "values": [{"measurement": "Maximum decrease in urinary (aTHF + THF)/THE ratio", "setting": "[2]; after 14 days of treatment", "value": 26, "unit": "%"}]}]}
